US20250051403A1, “ANTIMICROBIAL PEPTIDES, VARIANTS AND CHEMICAL ANALOGUES THEREOF AND THEIR USES” (priority 2021, published 2025)
≈ marks a conversion by molar mass, not a printed value. Non-standard residues stand in square brackets, D forms with d. Residues, ends and D or L forms follow the SMILES beside them. Abu = CC[C@H](N)C(=O)O

What was measured:
[1] = system: S. aureus methicillin resistant USA300 (ATCC BAA-1717); assay: MIC, broth microdilution; format: cell-based, Staphylococcus aureus; details: USA300
[2] = system: P. aeruginosa Fluoroquinolone resistant (CIP 107398); assay: MIC, broth microdilution; format: cell-based, Pseudomonas aeruginosa; details: CIP 107398
[3] = system: Salmonella enterica (CIP 80.39); assay: MIC, broth microdilution; format: cell-based; details: Table VI; Salmonella enterica
Procedure: To standardize the bacterial cell suspension for assay of antibacterial activity, some colonies of each strain grown overnight on MHA (Mueller Hinton Agar. ROTH) plates were suspended in MHB (Mueller Hinton Broth. ROTH) or MHB saline (Mueller Hinton Broth containing 565 mM NaCl) and incubated at 37° C. or 30° C. until visible turbid. This log-phase inoculum was diluted 1:100 in the same culture media. Using sterile 96-well microtiter plates (CELLSTAR. Greiner bio-one), serial 2-fold dilutions (40 to 0.78 μM) of each peptide were prepared in cation-adjusted acetic acid 0.02% with 0.4% BSA (Bovin Serum Albumin fraction V. Boehringer) at a volume of 10 μL/well. Each well was inoculated with 100 μL of the standardized bacterial inoculum, corresponding to a final test concentration of about 10^5 CFU/mL. Antimicrobial activities were expressed as the MIC (Minimal Inhibitory Concentration), the lowest concentration of peptide at which 100% inhibition of microbial growth was observed after 24 h of incubation at 37° C. or 30° C. by measuring OD600 in a microtiter plate reader. The minimal bactericidal concentration (MBC) was defined as the peptide concentration where no colony growth was observed.
The same experiments as described in 1) were performed. For the evaluation of antimicrobial activity against some other strains, a resazurin microtiter assay was used as explained hereinafter.

[4] = system: Acinetobacter baumannii; format: cell-based
Procedure: (§1) Biological (antimicrobial) activity of Michelicin (which comprises two disulfide bridges formed between four cysteines) synthetized with (A) or without (B) a stepwise formation of the desired disulfide pattern, was also determined. An analogue of Michelicin which has the same sequence as Michelicin except for the cysteine residues that are replaced by a neutral analogue of cysteine (i.e. Michelicin-OH 2343 (Abu-3-6-11-15)) was synthesized. Abu means 2-aminobutanoic group. This analogue is devoid of disulfide bridges. This analogue of Michelicin is called Michelicin no SS in Table VI.

[5] = system: Helicobacter pylori 21031; format: cell-based
Procedure: as §1

[6] = system: Staphylococcus aureus; format: cell-based
Procedure: as §1

[7] = system: Vibrio alginolyticus
[8] = system: V. diabolicus (HE 800)
[9] = system: B. subtilis nisin resistant (DSMZ 347); details: Table VI; Bacillus subtilis Nisin resistant
[10] = system: Clostridium perfringens (ATCC 13124); details: Table VI
[11] = system: M. smegmatis mc^2155

## CC[C@H](NC(=O)[C@H](CCCNC(=N)N)NC(=O)CNC(=O)[C@H](CC(N)=O)NC(=O)[C@H](CCCNC(=N)N)NC(=O)[C@H](CC)NC(=O)[C@@H](NC(=O)[C@H](CCCNC(=N)N)NC(=O)[C@@H](NC(=O)[C@H](CC)NC(=O)[C@@H](NC(=O)[C@@H](N)CCCNC(=N)N)C(C)C)C(C)C)[C@@H](C)CC)C(=O)N[C@@H](Cc1ccc(O)cc1)C(=O)N[C@@H](CCCNC(=N)N)C(=O)N[C@@H](CCCNC(=N)N)C(=O)N[C@@H](CC)C(=O)N[C@@H](Cc1c[nH]c2ccccc12)C(=O)N[C@@H](CC(N)=O)C(=O)N[C@H](C(=O)O)[C@@H](C)O [Michelicin no SS, Michelicin-OH 2343 (Abu-3-6-11-15)] (H-RV[Abu]VRI[Abu]RNGR[Abu]YRR[Abu]WNT-OH; N-terminus assumed)
[1]
  MIC: >80 µM
[2]
  MIC: >80 µM
[3]
  MIC: 80 µM (≈ 187 µg/mL)
[4]
  MIC: 2.5 µM (≈ 5.86 µg/mL)
[5]
  MIC: 40 µM (≈ 93.7 µg/mL)
[6]
  MIC: 80 µM (≈ 187 µg/mL)
[7]
  MIC: 0.625 µM (≈ 1.46 µg/mL)
[8]
  MIC: >80 µM
[9]
  MIC: 5 µM (≈ 11.7 µg/mL)
[10]
  MIC: >80 µM
[11]
  MIC: 20 µM (≈ 46.9 µg/mL)
